Data: patent publication US8501755B2, “Tetrahydropyridothienopyrimidine compounds and methods of use thereof” (Bayer Intellectual Property GmbH, priority 2006, dated 2013)

Tests used:
Type in all cases: cell-based
[1] = system: N87; assay: In vitro tumor cell proliferation assay (Cell Titer-Glo) in N87 cells; details: N87 human gastric carcinoma overexpressing HER2 and HER1; 72 hours exposure; read-out: IC50, activities in N87 cell lines
In short: (§1)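 Viability after 72 h drug exposure at 37 °C was read as CellTiter-Glo ATP luminescence, giving IC50. Cells (2.5×10^3/well, RPMI + 10% FBS) were compound-treated one day post-seeding, 0.1% DMSO final: A431 overexpresses HER1, N87 overexpresses HER2 and HER1.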

[2] = system: H1975 cells; assay: In vitro tumor cell proliferation assay (Cell Titer-Glo) in H1975 cells; details: NCI-H1975; H1975 human NSCLC expressing mutant HER1 (L858R,T790M); 72 hours exposure; read-out: IC50, activities in H 1975 cell lines
In short: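 After 72 h compound exposure at 37° C (top 10 uM down to 64 pM, 0.1% DMSO), viability of EGFR L858R/T790M-mutant H1975 cells was read as ATP luminescence.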

[3] = system: A431 cells; assay: In vitro tumor cell proliferation assay (Cell Titer-Glo) in A431 cells; details: Homo sapiens, A-431, 72 h, A431 human epidermoid carcinoma overexpressing HER1; 72 hours exposure; read-out: IC50, activities in A431 cell lines
In short: as §1

| Compound | IC50 [1] | IC50 [2] | IC50 [3] |
| --- | --- | --- | --- |
| CC1CN(C/C=C/C(=O)N2CCc3c(sc4ncnc(Nc5ccc(OCc6ccccn6)c(Cl)c5)c34)C2)CC(C)O1 (stereo not drawn) [Example 53, N-[3-chloro-4-(pyridin-2-ylmethoxy)phenyl]-7-((2E)-4-(2,6-dimethylmorpholin-4-yl)but-2-enoyl]-5,6,7,8-tetrahydropyrido [4′,3′:4,5]thieno[2,3-d]pyrimidin-4-amine] | < 200 nM | 1000 to 10000 nM | 1000 to 10000 nM |
| CN(C/C=C/C(=O)N1CCc2c(sc3ncnc(Nc4ccc(F)c(Cl)c4)c23)C1)C1CCCCC1 [Example 54, N-(3-chloro-4-fluorophenyl)-7-{(2E)-4-[cyclohexyl(methyl)amino]but-2-enoyl}-5,6,7,8-tetrahydropyrido [4′,3′:4,5]thieno[2,3-d]pyrimidin-4-amine] | < 200 nM | 200 to 1000 nM | 200 to 1000 nM |
| CC1CCCCN1C/C=C/C(=O)N1CCc2c(sc3ncnc(Nc4ccc(F)c(Cl)c4)c23)C1 (stereo not drawn) [Example 56, N-(3-chloro-4-fluorophenyl)-7-[(2E)-4-(2-methylpiperidin-1-yl)but-2-enoyl]-5,6,7,8-tetrahydropyrido [4′,3′:4,5]thieno[2,3-d]pyrimidin-4-amine] | < 200 nM | 200 to 1000 nM | 200 to 1000 nM |
| O=C(/C=C/CN1CCC(CCO)CC1)N1CCc2c(sc3ncnc(Nc4ccc(F)c(Cl)c4)c23)C1 [Example 57, 2-{1-[(2E)-4-{4-[(3-chloro-4-fluorophenyl)amino]-5,8-dihydropyrido [4′,3′:4,5]thieno[2,3-d]pyrimidin-7(6H)-yl}-4-oxobut-2-en-1-yl]piperidin-4-yl}ethanol] | < 200 nM | 200 to 1000 nM | 1000 to 10000 nM |
| O=C(/C=C/CN1CCC(O)CC1)N1CCc2c(sc3ncnc(Nc4ccc(F)c(Cl)c4)c23)C1 [Example 58, 1-[(2E)-4-{4-[(3-chloro-4-fluorophenyl)amino]-5,8-dihydropyrido [4′,3′:4,5]thieno[2,3-d]pyrimidin-7(6H)-yl}-4-oxobut-2-en-1-yl]piperidin-4-ol] | < 200 nM | 1000 to 10000 nM | 1000 to 10000 nM |
| CC1CCCN1C/C=C/C(=O)N1CCc2c(sc3ncnc(Nc4ccc(F)c(Cl)c4)c23)C1 (stereo not drawn) [Example 59, N-(3-chloro-4-fluorophenyl)-7-[(2E)-4-(2-methylpyrrolidin-1-yl)but-2-enoyl]-5,6,7,8-tetrahydropyrido [4′,3′:4,5]thieno[2,3-d]pyrimidin-4-amine] | < 200 nM | < 200 nM | < 200 nM |
| CC1CCCC(C)N1C/C=C/C(=O)N1CCc2c(sc3ncnc(Nc4ccc(F)c(Cl)c4)c23)C1 (stereo not drawn) [Example 60, N-(3-chloro-4-fluorophenyl)-7-[(2E)-4-(2,6-dimethylpiperidin-1-yl)but-2-enoyl]-5,6,7,8-tetrahydropyrido [4′,3′:4,5]thieno[2,3-d]pyrimidin-4-amine] | < 200 nM | 200 to 1000 nM | 200 to 1000 nM |
| CCN(C/C=C/C(=O)N1CCc2c(sc3ncnc(Nc4ccc(F)c(Cl)c4)c23)C1)C1CCCCC1 [Example 61, N-(3-chloro-4-fluorophenyl)-7-{(2E)-4-[cyclohexyl(ethyl)amino]but-2-enoyl}-5,6,7,8-tetrahydropyrido [4′,3′:4,5]thieno[2,3-d]pyrimidin-4-amine] | < 200 nM | 200 to 1000 nM | 200 to 1000 nM |
| O=C(/C=C/CN1CCN(CCO)CC1)N1CCc2c(sc3ncnc(Nc4ccc(OCc5ccccn5)c(Cl)c4)c23)C1 [Example 62, 2-(4-{(2E)-4-[4-{[3-chloro-4-(pyridin-2-ylmethoxy)phenyl]amino}-5,8-dihydropyrido [4′,3′:4,5]thieno[2,3-d]pyrimidin-7(6H)-yl]-4-oxobut-2-en-1-yl}piperazin-1-yl)ethanol] | < 200 nM | 200 to 1000 nM | 200 to 1000 nM |
| CC(C)N(C)C/C=C/C(=O)N1CCc2c(sc3ncnc(Nc4ccc(OCc5ccccn5)c(Cl)c4)c23)C1 [Example 63, N-[3-chloro-4-(pyridin-2-ylmethoxy)phenyl]-7-{(2E)-4-[isopropyl(methyl)amino]but-2-enoyl}-5,6,7,8-tetrahydropyrido [4′,3′:4,5]thieno[2,3-d]pyrimidin-4-amine] | < 200 nM | 200 to 1000 nM | 200 to 1000 nM |
| CC1CCCCN1C/C=C/C(=O)N1CCc2c(sc3ncnc(Nc4ccc(OCc5ccccn5)c(Cl)c4)c23)C1 (stereo not drawn) [Example 64] | < 200 nM | 200 to 1000 nM | 200 to 1000 nM |
| CN(C/C=C/C(=O)N1CCc2c(sc3ncnc(Nc4ccc(OCc5ccccn5)c(Cl)c4)c23)C1)C(C)(C)C [Example 65, 7-{(2E)-4-[tert-butyl(methyl)amino]but-2-enoyl}-N-[3-chloro-4-(pyridin-2-ylmethoxy)phenyl]-5,6,7,8-tetrahydropyrido [4′,3′:4,5]thieno[2,3-d]pyrimidin-4-amine] | < 200 nM | < 200 nM | 200 to 1000 nM |
| CC(C)CN(C)C/C=C/C(=O)N1CCc2c(sc3ncnc(Nc4ccc(OCc5ccccn5)c(Cl)c4)c23)C1 [Example 66, N-[3-chloro-4-(pyridin-2-ylmethoxy)phenyl]-7-{(2E)-4-[isobutyl(methyl)amino]but-2-enoyl}-5,6,7,8-tetrahydropyrido [4′,3′:4,5]thieno[2,3-d]pyrimidin-4-amine] | < 200 nM | 200 to 1000 nM | 200 to 1000 nM |
| CC1CCCN(C/C=C/C(=O)N2CCc3c(sc4ncnc(Nc5ccc(OCc6ccccn6)c(Cl)c5)c34)C2)C1 (stereo not drawn) [Example 67, N-[3-chloro-4-(pyridin-2-ylmethoxy)phenyl]-7-[(2E)-4-(3-methylpiperidin-1-yl)but-2-enoyl]-5,6,7,8-tetrahydropyrido [4′,3′:4,5]thleno[2,3-d]pyrimidin-4-amine] | < 200 nM | 200 to 1000 nM | 200 to 1000 nM |
| O=C(/C=C/CN1CCCCCC1)N1CCc2c(sc3ncnc(Nc4ccc(OCc5ccccn5)c(Cl)c4)c23)C1 [Example 68, 7-[(2E)-4-azepan-1-ylbut-2-enoyl]-N-[3-chloro-4-(pyridin-2-ylmethoxy)phenyl]-5,6,7,8-tetrahydropyrido [4′,3′:4,5]thieno[2,3-d]pyrimidin-4-amine] | < 200 nM | 200 to 1000 nM | 200 to 1000 nM |
| O=C(/C=C/CN1CCCC(CO)C1)N1CCc2c(sc3ncnc(Nc4ccc(F)c(Cl)c4)c23)C1 (stereo not drawn) [Example 69, {1-[(2E)-4-{4-[(3-chloro-4-fluorophenyl)amino]-5,8-dihydropyrido [4′,3′:4,5]thieno[2,3-d]pyrimidin-7(6H)-yl}-4-oxobut-2-en-1-yl]piperidin-3-yl}methanol] | < 200 nM | 200 to 1000 nM | 200 to 1000 nM |
| CCN(C/C=C/C(=O)N1CCc2c(sc3ncnc(Nc4ccc(OCc5ccccn5)c(Cl)c4)c23)C1)C(C)C [Example 70, N-[3-chloro-4-(pyridin-2-ylmethoxy)phenyl]-7-{(2E)-4-[ethyl(isopropyl)amino]but-2-enoyl}-5,6,7,8-tetrahydropyrido [4′,3′:4,5]thieno[2,3-d]pyrimidin-4-amine] | < 200 nM | < 200 nM | 1000 to 10000 nM |
| CCN(CC)C/C=C/C(=O)N1CCc2c(sc3ncnc(Nc4ccc(OCc5cnccn5)c(Cl)c4)c23)C1 [Example 72, N-[3-chloro-4-(pyrazin-2-ylmethoxy)phenyl]-7-[(2E)-4-(diethylamino)but-2-enoyl]-5,6,7,8-tetrahydropyrido [4′,3′:4,5]thieno[2,3-d]pyrimidin-4-amine] | < 200 nM | 200 to 1000 nM | 1000 to 10000 nM |
| CCN(CC)C/C=C/C(=O)N1CCc2c(sc3ncnc(Nc4ccc(OCc5cccc(C)n5)c(Cl)c4)c23)C1 [Example 73, N-{3-chloro-4-[(6-methylpyridin-2-yl)methoxy]phenyl}-7-[(2E)-4-(diethylamino)but-2-enoyl]-5,6,7,8-tetrahydropyrido [4′,3′:4,5]thieno[2,3-d]pyrimidin-4-amine] | < 200 nM | 1000 to 10000 nM | 1000 to 10000 nM |
| Cc1cccc(COc2ccc(Nc3ncnc4sc5c(c34)CCN(C(=O)/C=C/CN(C)C)C5)cc2Cl)n1 [Example 74, N-{3-chloro-4-[(6-methylpyridin-2-yl)methoxy]phenyl}-7-[(2E)-4-(dimethylamino)but-2-enoyl]-5,6,7,8-tetrahydropyrido [4′,3′:4,5]thieno[2,3-d]pyrimidin-4-amine] | < 200 nM | 1000 to 10000 nM | 1000 to 10000 nM |
| Cc1cccc(COc2ccc(Nc3ncnc4sc5c(c34)CCN(C(=O)/C=C/CN3CCCCC3)C5)cc2Cl)n1 [Example 75, N-{3-chloro-4-[(6-methylpyridin-2-yl)methoxy]phenyl}-7-[(2E)-4-piperidin-1-ylbut-2-enoyl]-5,6,7,8-tetrahydropyrido [4′,3′:4,5]thieno[2,3-d]pyrimidin-4-amine] | < 200 nM | 200 to 1000 nM | 1000 to 10000 nM |
| CCN(C)C/C=C/C(=O)N1CCc2c(sc3ncnc(Nc4ccc(OCc5cccc(C)n5)c(Cl)c4)c23)C1 [Example 76, N-{3-chloro-4-[(6-methylpyridin-2-yl)methoxy]phenyl}-7-{(2E)-4-[ethyl(methyl)amino]but-2-enoyl}-5,6,7,8-tetrahydropyrido [4′,3′:4,5]thieno[2.3-d]pyrimidin-4-amine] | < 200 nM | 1000 to 10000 nM | 1000 to 10000 nM |
| Cc1cccc(COc2ccc(Nc3ncnc4sc5c(c34)CCN(C(=O)/C=C/CN(C)C(C)C)C5)cc2Cl)n1 [Example 77, N-{3-chloro-4-[(6-methylpyridin-2-yl)methoxy]phenyl}-7-{(2E)-4-[isopropyl(methyl)amino]but-2-enoyl}-5,6,7,8-tetrahydropyrido [4′,3′:4,5]thieno[2,3-d]pyrimidin-4-amine] | < 200 nM | 200 to 1000 nM | 1000 to 10000 nM |
